ChEMBL document CHEMBL2177019, “Carbamate derivatives of indolines as cholinesterase inhibitors and antioxidants for the treatment of Alzheimer's disease” (J Med Chem, 2012)
Activity calls are given as the source filed them. The calls are words filed in the database; no cut-off is given here.

Legend:
[1] = Stability in human plasma assessed as compound hydrolysis at 37 degC within 90 mins; assay type: ADME, cell-free; details: read-out: Drug degradation
Liver = assay: Metabolic stability in mouse liver microsomes; assay type: ADME, Microsome
[2] = Chemical stability in MeCN/water solution at 25 degC; assay type: physicochemical; details: buffer
Liver microsomes = assay: Metabolic stability in human liver microsomes; assay type: ADME, Microsome
H9c2 [3] = assay: Prevention of apoptosis in rat H9c2 cells assessed as reduction in fall of mitochondrial membrane potential at 100 nM after 1 hr; assay type: functional; parameters: scale not given: the % may be the effect or the level left
H9c2 [4] = assay: Prevention of apoptosis in rat H9c2 cells assessed as protection against oxidative stress-induced cytotoxicity at 100 nM […] by Alamar blue assay; assay type: functional
[5] = Selectivity ratio of IC50 for equine BuChE to IC50 for bovine AChE
Butyrylcholinesterase = Butyrylcholinesterase (Equus caballus, UniProt Q9N1N9); assay: Inhibition of equine BuChE after 120 mins by Ellman's method
Chain of Butyrylcholinesterase (Q9N1N9 whole entry): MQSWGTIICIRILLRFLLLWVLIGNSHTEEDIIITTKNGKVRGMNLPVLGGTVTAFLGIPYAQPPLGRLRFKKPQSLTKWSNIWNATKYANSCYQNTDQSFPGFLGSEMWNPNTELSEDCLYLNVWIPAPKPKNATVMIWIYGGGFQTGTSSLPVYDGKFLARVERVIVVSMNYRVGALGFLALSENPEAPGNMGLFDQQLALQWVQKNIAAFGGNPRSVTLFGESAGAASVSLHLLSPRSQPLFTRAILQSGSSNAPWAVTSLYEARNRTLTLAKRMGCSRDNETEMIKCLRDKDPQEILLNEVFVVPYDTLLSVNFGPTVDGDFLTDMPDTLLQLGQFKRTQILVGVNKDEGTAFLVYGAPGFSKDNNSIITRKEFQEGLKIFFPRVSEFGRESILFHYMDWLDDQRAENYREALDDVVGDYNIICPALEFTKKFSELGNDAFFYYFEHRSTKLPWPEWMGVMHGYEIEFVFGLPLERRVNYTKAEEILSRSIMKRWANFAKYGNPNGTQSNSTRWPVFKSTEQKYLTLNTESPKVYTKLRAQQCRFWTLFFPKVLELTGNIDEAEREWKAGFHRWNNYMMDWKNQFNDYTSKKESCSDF

Acetylcholinesterase = target: T1, Acetylcholinesterase (Bos taurus, UniProt P23795); assay: Inhibition of bovine AChE after 120 mins by Ellman's method
T1 sequence (P23795 whole entry): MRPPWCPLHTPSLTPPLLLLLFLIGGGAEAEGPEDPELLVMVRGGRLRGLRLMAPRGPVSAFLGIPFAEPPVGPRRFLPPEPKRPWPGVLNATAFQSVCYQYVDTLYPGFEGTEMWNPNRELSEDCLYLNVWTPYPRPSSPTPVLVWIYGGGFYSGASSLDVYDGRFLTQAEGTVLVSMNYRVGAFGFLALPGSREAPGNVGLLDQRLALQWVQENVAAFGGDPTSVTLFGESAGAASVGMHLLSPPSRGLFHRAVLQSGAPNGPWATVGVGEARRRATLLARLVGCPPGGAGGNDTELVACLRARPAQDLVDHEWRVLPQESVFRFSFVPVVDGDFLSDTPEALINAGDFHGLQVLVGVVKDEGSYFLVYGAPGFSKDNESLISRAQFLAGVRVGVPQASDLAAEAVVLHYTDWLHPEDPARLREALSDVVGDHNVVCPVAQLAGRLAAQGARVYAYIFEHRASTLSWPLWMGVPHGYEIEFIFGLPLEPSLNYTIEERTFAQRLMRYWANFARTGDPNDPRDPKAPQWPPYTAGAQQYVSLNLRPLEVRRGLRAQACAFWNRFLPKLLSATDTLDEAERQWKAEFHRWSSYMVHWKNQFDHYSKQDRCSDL

[6] = Cytotoxicity against rat H9c2 cells assessed as cell viability in absence of H2O2; assay type: cell-based; parameters: concentration or dose not given beside the values; details: read-out: Activity
[7] = Antioxidant activity assessed as scavenging of glucose oxidase-generated H2O2 and hydroxyl radicals by chemiluminescence assay; assay type: functional
[8] = Antioxidant activity assessed as scavenging of morpholino sydononimine based nitric oxide release by chemiluminescence assay; assay type: functional
[9] = Antioxidant activity of the compound assessed as DHR radical scavenging activity at 10 uM by fluorescence assay; assay type: functional
Gallus gallus [10] = species: Gallus gallus; assay: Prevention of apoptosis in chick primary telencephalon neurons assessed as protection against serum deprivation-induced oxidative stress at 10 nM measured on day 8 by MTT assay; assay type: functional
Gallus gallus [11] = species: Gallus gallus; assay: Prevention of apoptosis in chick primary telencephalon neurons assessed as protection against serum deprivation-induced cytotoxicity at 1 to 10 uM by MTT assay; assay type: functional
[12] = test system: Radical scavenging activity; assay: Antioxidant activity of the compound assessed as DPPH radical scavenging at 10 uM after 30 secs by spectrophotometry; assay type: functional
[13] = Chemical stability in MeCN/water solution used as 0.5 mg/mL solution at -20 degC; assay type: physicochemical; details: buffer
[14] = Chemical stability in MeCN/water solution used as 50 mg/mL solution at -20 degC; assay type: physicochemical; details: buffer
[15] = Chemical stability in MeCN/water solution used as 100 mg/mL solution at room temperature; assay type: physicochemical; details: buffer
[16] = Antioxidant activity of the compound assessed as scavenging of peroxynitrite by chemiluminometric method; assay type: functional
[17] = Antioxidant activity of the compound assessed as scavenging of hydroxyl radical by chemiluminometric method; assay type: functional
H9c2 [18] = assay: Prevention of apoptosis in rat H9c2 cardiomyocytes assessed as protection against oxidative stress-induced cytotoxicity at 1 pM to 1 nM after 1 hr by Alamar blue assay; assay type: functional

| Structure (SMILES) | Activity (H9c2 [4]) | Ratio IC50 [5] | IC50 (Butyrylcholinesterase) [µM] | IC50 (Acetylcholinesterase) [µM] | viability [6] [%] | IC50 [7] [µM] | other results |
| --- | --- | --- | --- | --- | --- | --- | --- |
| CCN(C)C(=O)Oc1cccc2c1C(CCC(=O)OC)CN2.CS(=O)(=O)O (stereo unspecified) | – | – | – | – | – | – | metabolised at […] [1]: 40%; Stability (Liver): Unstable; Stability [2]: 9 days; Stability (Liver microsomes): Unstable |
| C#CCN[C@@H]1CCc2ccc(OC(=O)N(C)CC)cc21 [LADOSTIGIL] | 58.5% | 0.06 | 0.48 | 30.3 | – | – | Activity (H9c2 [3]): 32% |
| CCCCN(C)C(=O)Oc1cccc2c1C(CCC(=O)OC)CN2C.Cl (stereo unspecified) | 31.5% | 2.89 | 197 | – | 93.9 | 6.84 | – |
| O=C(O)CCC1CNc2cc(O)ccc21 (stereo unspecified) | inactive | – | – | – | – | 2.34 | IC50 [8]: 1.34 µM; Activity [9]: 41.9% |
| CCN(C)C(=O)Oc1cccc2c1NCC2CCC(=O)OC (stereo unspecified) | – | 0.00012 | 0.008 | 61.6 | – | – | – |
| COC(=O)CCC1CN(C)c2cccc(OC(=O)N(C)c3ccc(OC)cc3)c21 (stereo unspecified) | inactive | > 2.4 | > 600 | 246 | 107 | 15.3 | – |
| CCCCN(C)C(=O)Oc1ccc2c(CCC(=O)OC)c[nH]c2c1 | 28.8% | – | – | – | – | – | Activity (H9c2 [3]): 56% |
| CN(C)C(=O)Oc1cccc2c1CCN2.Cl | 46.8% | 1.08 | 1.3 | 1.2 | – | 0.77 | – |
| CCOC(=O)CCC1CNc2cccc(OC(=O)N(C)CC)c21 (stereo unspecified) | – | – | 0.56 | 40.2 | – | – | – |
| CCCCN(C)C(=O)Oc1ccc2c(c1)N(C)CC2CCC(=O)OC (stereo unspecified) | – | 0.55 | 66.8 | 122 | – | 6.27 | – |
| O=C(O)CCC1CNc2cccc(O)c21 (stereo unspecified) | – | – | – | – | – | 1.44 | Activity [9]: 19.1% |
| CCN(C)C(=O)Oc1cccc2c1C(CCC(=O)OC)CN2.Cl (stereo unspecified) | 73% | – | 0.3 | 7.4 | 99.9 | 1.46 | IC50 [8]: 4.55 µM |
| CCCCN(C)C(=O)Oc1ccc2c(c1)NCC2CCC(=O)OC.Cl (stereo unspecified) | 40.1% | 6.5 | 404 | 62.3 | 87.8 | 24.1 | Activity (H9c2 [3]): 54% |
| Cl.Oc1cccc2c1CCN2 | 38% | – | – | – | – | 1.15 | Activity (Gallus gallus [10]): Active; Activity (Gallus gallus [11]): Active |
| CCN(C)C(=O)Oc1cccc([C@H](C)N(C)C)c1 [RIVASTIGMINE] | – | – | – | 0.62 | – | – | – |
| O=c1c(O)c(-c2ccc(O)c(O)c2)oc2cc(O)cc(O)c12 [QUERCETIN] | 45.1% | – | – | – | – | 0.06 | Activity [12]: 19.2%; IC50 [8]: 0.61 µM; Activity [9]: 33.6% |
| COC(=O)CCc1c[nH]c2cc(OC(=O)N(C)c3ccc(OC)cc3)ccc12 | 43.1% | – | – | > 600 | – | – | Activity (H9c2 [3]): 48.2% |
| CCN(C)C(=O)Oc1cccc2c1C(CCN)CN2 (stereo unspecified) | – | 0.5 | 0.2 | – | – | 0.07 | Activity [12]: 36.3%; IC50 [8]: 2.13 µM |
| CCN(C)C(=O)Oc1cccc2c1C(CCC(N)=O)CN2.Cl (stereo unspecified) | 55.2% | 0.14 | 8.5 | 62 | 96 | 2.39 | – |
| CCN(C)C(=O)Oc1ccc2c(c1)NCC2CCC(=O)OC (stereo unspecified) | – | 0.07 | – | – | – | – | Activity [12]: 31.7% |
| CCN(C)C(=O)Oc1cccc2c1CCN2CCC(=O)OC | – | – | 0.7 | – | – | 0.3 | Activity [12]: 27.8%; IC50 [8]: 8.49 µM |
| COC(=O)CCC1CNc2cc(O)ccc21.Cl (stereo unspecified) | 50% | – | – | – | – | 1.34 | Activity (H9c2 [3]): 87%; Activity [12]: 28.2%; IC50 [8]: 1.38 µM; Activity [9]: 52.1% |
| COC(=O)CCC1CNc2cc(OC(=O)N(C)c3ccc(OC)cc3)ccc21.Cl (stereo unspecified) | 43.8% | 1.4 | 54 | – | – | 3.41 | – |

| Structure (SMILES) | Activity (H9c2 [4]) | Ratio IC50 [5] | IC50 (Butyrylcholinesterase) [µM] | IC50 (Acetylcholinesterase) [µM] | viability [6] [%] | IC50 [7] [µM] | other results |
| --- | --- | --- | --- | --- | --- | --- | --- |
| CCN(C)C(=O)Oc1ccc2c(c1)N(C)CC2 | – | 0.14 | 58.7 | 418 | – | 1.15 | – |
| COC(=O)CCC1CN(C)c2cccc(O)c21 (stereo unspecified) | – | – | – | – | – | 0.45 | Activity [9]: 15.4% |
| COC(=O)CCC1CNc2cccc(OC(=O)N(C)c3ccc(OC)cc3)c21.Cl (stereo unspecified) | 43.1% | 3.8 | 4.6 | 1.2 | 84.7 | 19 | Activity [12]: 30.4%; IC50 [8]: 3.18 µM |
| COc1ccc(N(C)C(=O)Oc2cccc3c2C(CCC(=O)O)CN3C)cc1 (stereo unspecified) | inactive | > 4.8 | > 600 | 125 | 101 | 10.2 | – |
| COC(=O)CCC1CNc2cccc(O)c21.Cl (stereo unspecified) | 57.3% | – | – | – | 121 | 0.67 | Activity [12]: 32.4%; IC50 [8]: 0.25 µM; Activity (Gallus gallus [10]): Active; Activity [9]: 10.6%; Activity (Gallus gallus [11]): Active |
| CCN(C)C(=O)Oc1ccc2c(c1)NCC2CCC(=O)OC.O=C(O)CC(O)(CC(=O)O)C(=O)O (stereo unspecified) | – | – | – | – | – | – | Stability [13]: Stable; Stability [14]: Stable; Stability [15]: Unstable; Stability (Liver): Unstable; Stability (Liver microsomes): Unstable |
| CCN(C)C(=O)Oc1ccc2c(c1)N(CCC(=O)OC)CC2 | – | – | 6.8 | – | – | 0.22 | IC50 [8]: 2.18 µM |
| CCN(C)C(=O)Oc1cccc2c1C(CCC(=O)O)CN2 (stereo unspecified) | inactive | 0.016 | 0.3 | 19 | 93.4 | 1.59 | – |
| CCN(C)C(=O)Oc1cccc2c1C(CCC(=O)OC)CN2 (stereo unspecified) | – | 0.04 | – | – | – | – | Activity [12]: 24.8%; Activity (Gallus gallus [10]): Active; Activity (Gallus gallus [11]): Active |
| COc1ccc2[nH]cc(CCNC(C)=O)c2c1 [MELATONIN] | – | – | – | – | – | 95.8 | IC50 [16]: 127 µM; IC50 [17]: 537 µM; IC50 [8]: 1020 µM |
| CCN(C)C(=O)Oc1ccc2c(c1)NCC2CCC(=O)O.Cl (stereo unspecified) | 56.1% | 0.06 | 10 | 175 | 102 | 1.14 | – |
| COc1ccc(N(C)C(=O)Oc2cccc3c2C(CCC(=O)O)CN3)cc1 (stereo unspecified) | inactive | 11 | 417 | 37.8 | 95.5 | 4.33 | – |
| COC(=O)CCC1CN(C)c2cc(OC(=O)N(C)c3ccc(OC)cc3)ccc21.Cl (stereo unspecified) | 33.3% | – | 372 | 17.4 | 106 | 2.24 | – |
| CC(=O)N[C@@H](CS)C(=O)O [ACETYLCYSTEINE] | 25.2% | – | – | – | – | – | Activity (H9c2 [3]): 20% |
| CCN(C)C(=O)Oc1cccc2c1C(CCC(=O)OC)CN2C (stereo unspecified) | inactive | 0.11 | 6.8 | 58.7 | 97.3 | 3.13 | – |
| CCN(C)C(=O)Oc1ccc2c(c1)NCC2CCC(=O)OC.Cl (stereo unspecified) | 58.5% | – | 3.9 | 55.2 | 100 | 1.45 | Activity (H9c2 [3]): 77%; IC50 [8]: 2.36 µM |
| CCN(C)C(=O)Oc1cccc2c1CCN2.Cl | 35.3% | 0.1 | 0.7 | 7.2 | – | 1.38 | Activity [12]: 15%; IC50 [8]: 0.57 µM; Activity (Gallus gallus [10]): Active; Activity (Gallus gallus [11]): Active |
| CCN(C)C(=O)Oc1cccc2c1c(CCC(=O)OC)cn2C | – | – | – | 180 | – | – | – |
| CCN(C)C(=O)Oc1cccc2c1C(CCC(=O)O)CN2C.Cl (stereo unspecified) | 57.4% | 0.078 | 9.7 | 124 | 106 | 1.64 | Activity (H9c2 [18]): 43% |
| CN1CC(CCC(=O)O)c2ccc(O)cc21 (stereo unspecified) | – | – | – | – | – | 0.84 | IC50 [8]: 3.25 µM; Activity [9]: 66.3% |
| CCN(C)C(=O)Oc1cccc2[nH]cc(CCC(=O)OC)c12 | – | 0.48 | 9.5 | 19.6 | – | – | – |
| O=C(O)c1cc(O)c(O)c(O)c1 | – | – | – | – | – | – | Activity [12]: 31.4% |
